# Measurements published in patent publication US9650339B2, “Inhibitors of histone demethylases” (Gilead Sciences, Inc., priority 2013, dated 2017).
# Columns and labels:
# KDM4C = target: T1, KDM4C (Homo sapiens, UniProt Q9H3R0); assay: Histone lysine demethylase immunofluorescence assay, U2OS cells transfected with KDM4C; format: cell-based; conditions: U2OS cells transfected with pCMVHA KDM4C; mark detected H3K9me3; 20 hours
# T1 construct: Full length; host or cells: U2OS
# T1 sequence (Q9H3R0 1-1056): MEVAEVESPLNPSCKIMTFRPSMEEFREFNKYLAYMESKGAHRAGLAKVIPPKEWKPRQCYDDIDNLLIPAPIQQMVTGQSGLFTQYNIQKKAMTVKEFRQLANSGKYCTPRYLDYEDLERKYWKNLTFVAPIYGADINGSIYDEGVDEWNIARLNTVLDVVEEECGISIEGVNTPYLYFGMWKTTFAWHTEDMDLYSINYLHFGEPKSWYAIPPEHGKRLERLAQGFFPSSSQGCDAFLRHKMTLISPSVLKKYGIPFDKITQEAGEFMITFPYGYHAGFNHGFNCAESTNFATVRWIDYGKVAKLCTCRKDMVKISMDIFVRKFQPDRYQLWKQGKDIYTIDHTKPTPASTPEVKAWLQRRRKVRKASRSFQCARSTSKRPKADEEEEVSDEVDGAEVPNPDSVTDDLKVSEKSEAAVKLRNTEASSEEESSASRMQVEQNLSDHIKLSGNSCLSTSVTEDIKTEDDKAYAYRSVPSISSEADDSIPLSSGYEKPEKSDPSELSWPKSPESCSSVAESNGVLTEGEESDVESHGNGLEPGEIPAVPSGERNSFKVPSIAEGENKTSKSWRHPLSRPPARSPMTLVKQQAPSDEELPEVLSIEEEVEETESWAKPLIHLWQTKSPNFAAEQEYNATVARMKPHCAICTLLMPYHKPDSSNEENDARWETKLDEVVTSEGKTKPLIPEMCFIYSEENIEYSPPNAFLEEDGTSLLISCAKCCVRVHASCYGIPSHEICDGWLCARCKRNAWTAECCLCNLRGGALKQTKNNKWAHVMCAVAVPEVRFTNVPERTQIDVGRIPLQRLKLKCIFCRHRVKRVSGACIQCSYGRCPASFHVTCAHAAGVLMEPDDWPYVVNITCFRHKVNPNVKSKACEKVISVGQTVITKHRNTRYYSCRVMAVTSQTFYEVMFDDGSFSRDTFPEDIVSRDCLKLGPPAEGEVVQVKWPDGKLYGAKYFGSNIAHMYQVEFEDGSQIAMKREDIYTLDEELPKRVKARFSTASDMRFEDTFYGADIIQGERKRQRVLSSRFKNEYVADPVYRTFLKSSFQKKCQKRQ
# Summary of the method: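 U2OS cells were transiently transfected with HA-tagged demethylase and reseeded after 6 h into compound-containing DMEM/10% FBS for 20 h. Cells were fixed in formaldehyde and immunostained for HA and the relevant histone methyl mark, then imaged. IC50 is based on mean mark staining in HA+ transfected cells.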
# KDM7 (PHF8) = target: T2, KDM7 (PHF8) (Homo sapiens, UniProt Q9UPP1); assay: Histone lysine demethylase AlphaLISA assay, KDM7; format: biochemical; conditions: read-out: PHF8 HDME Inhibition IC50
# T2 construct: KDM7 (PHF8); BRIC; 1-1322; Bac
# Summary of the method: (§1)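 AlphaLISA demethylation readout: enzyme preincubated 10 min, then 10 min with compounds in 3% DMSO buffer, before biotinylated methyl-lysine histone peptide substrate with 25 μM L-Asc and 10 μM α-KG, room temperature. Acceptor beads then streptavidin donor beads added, dark incubation, plates read.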
# KDM4A (JMJD2A) = target: T3, KDM4A (JMJD2A) (Homo sapiens, UniProt O75164); assay: Histone lysine demethylase AlphaLISA assay, KDM4A; format: biochemical; conditions: read-out: KDM4A HDME Inhibition IC50
# T3 construct: 1-350; purchased BPS Bioscience, US; host or cells: E. coli
# T3 sequence (O75164 1-350): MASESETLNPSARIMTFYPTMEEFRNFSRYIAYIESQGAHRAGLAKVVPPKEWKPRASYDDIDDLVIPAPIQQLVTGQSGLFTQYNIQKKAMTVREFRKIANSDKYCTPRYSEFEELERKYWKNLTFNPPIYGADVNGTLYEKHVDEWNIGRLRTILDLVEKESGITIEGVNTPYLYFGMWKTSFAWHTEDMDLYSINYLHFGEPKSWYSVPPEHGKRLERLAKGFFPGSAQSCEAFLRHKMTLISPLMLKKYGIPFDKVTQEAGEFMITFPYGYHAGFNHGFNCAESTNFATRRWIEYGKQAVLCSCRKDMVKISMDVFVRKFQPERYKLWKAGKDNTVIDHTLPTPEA
# Summary of the method: as §1
# T2 sequence (Q9UPP1 37-440 limits assumed): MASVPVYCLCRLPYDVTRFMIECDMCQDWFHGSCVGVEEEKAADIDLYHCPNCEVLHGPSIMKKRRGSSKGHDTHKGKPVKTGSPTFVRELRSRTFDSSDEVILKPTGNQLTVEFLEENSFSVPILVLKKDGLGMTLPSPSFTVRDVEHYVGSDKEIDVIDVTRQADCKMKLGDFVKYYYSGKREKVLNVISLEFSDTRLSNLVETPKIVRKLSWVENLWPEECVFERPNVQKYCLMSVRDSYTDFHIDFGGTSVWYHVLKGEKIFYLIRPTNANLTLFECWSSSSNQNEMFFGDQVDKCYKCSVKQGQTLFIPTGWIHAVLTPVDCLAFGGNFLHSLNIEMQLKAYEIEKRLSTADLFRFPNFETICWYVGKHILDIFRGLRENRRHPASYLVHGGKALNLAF
SMILES,IC50 (KDM4C) [µM],IC50 (KDM7 (PHF8)) [µM],IC50 (KDM4A (JMJD2A)) [µM]
"CCN(CC)CCCCNCc1cc(C2NCCN2C)ccn1 (stereo not drawn) [Compound 65, [4-(diethylamino)-butyl]({[4-(1-methylimidazolidin-2-yl)pyridin-2-yl]methyl})amine]",> 2.5,> 2.5,> 2.5
CCN(CCN(C)C)C(=O)CNCc1cc(/C=N/CCO)ccn1 [Compound 66],0.25 to 2.5,0.25 to 2.5,< 0.25
"CCN(CC)CCCCNCc1cc(/C=N\CCC2CCCCC2)ccn1 [Compound 67, (2-cyclohexylethyl)-({[2-({[4-(diethylamino)-butyl]amino}methyl)pyridin-4-yl]methylidene})-amine]",0.25 to 2.5,> 2.5,> 2.5
"CN(C)CC1CCC(CNCc2cc(C=O)ccn2)CC1 (stereo not drawn) [Compound 97, 2-{[({4-[(dimethylamino)-methyl]cyclohexyl}-methyl)amino]-methyl}pyridine-4-carbaldehyde]",0.25 to 2.5,> 2.5,> 2.5
"CN(C)C/C=C/CNCc1cc(C=O)ccn1 [Compound 98, 2-({[(2E)-4-(dimethylamino)but-2-en-1-yl]amino}-methyl)pyridine-4-carbaldehyde]",0.25 to 2.5,> 2.5,> 2.5
"CN(C)C/C=C\CNCc1cc(C=O)ccn1 [Compound 99, 2-({[(2Z)-4-(dimethylamino)-but-2-en-1-yl]amino}methyl)-pyridine-4-carbaldehyde]",> 2.5,> 2.5,> 2.5
CCN(CCN(C)C)C(=O)CNCc1cc(C=O)ccn1 [Compound 101],0.25 to 2.5,0.25 to 2.5,< 0.25
"O=Cc1ccnc(CNCC(=O)N2CCC[C@@H]2CN2CCCC2)c1 [Compound 102, 2-[({2-oxo-2-[(2R)-2-(pyrrolidin-1-ylmethyl)pyrrolidin-1-yl]ethyl}amino)-methyl]pyridine-4-carbaldehyde]",0.25 to 2.5,> 2.5,> 2.5
"CN1CCN(C(=O)CNCc2cc(C=O)ccn2)CC1 [Compound 103, 2-({[2-(4-methylpiperazin-1-yl)-2-oxoethyl]-amino}methyl)-pyridine-4-carbaldehyde]",> 2.5,> 2.5,> 2.5
"O=Cc1ccnc(CNCC(=O)N2CCC(Cc3ccccc3)CC2)c1 [Compound 106, 2-({[2-(4-benzylpiperidin-1-yl)-2-oxoethyl]-amino}methyl)-pyridine-4-carbaldehyde]",> 2.5,0.25 to 2.5,0.25 to 2.5
"CCN(CC)CCCCNCc1cc(C=O)ccn1 [Compound 107, 2-({[4-(diethylamino)-butyl]amino}-methyl)pyridine-4-carbaldehyde]",0.25 to 2.5,> 2.5,> 2.5
"CN(C)CCCCNCc1cc(C=O)ccn1 [Compound 108, 2-({[4-(dimethylamino)-butyl]amino}methyl)-pyridine-4-carbaldehyde]",0.25 to 2.5,> 2.5,> 2.5
"CN(C)CCNCc1cc(C=O)ccn1 [Compound 110, 2-({[2-(dimethylamino)-ethyl]amino}methyl)-pyridine-4-carbaldehyde]",> 2.5,> 2.5,0.25 to 2.5
"CCN(CC)CCCCNC(=O)CNCc1cc(C=O)ccn1 [Compound 112, N-[4-(diethylamino)-butyl]-2-{[(4-formylpyridin-2-yl)methyl]amino}-acetamide]",> 2.5,< 0.25,< 0.25
"CN(C)CCCCCNCc1cc(C=O)ccn1 [Compound 114, 2-({[5-(dimethylamino)-pentyl]amino}methyl)-pyridine-4-carbaldehyde]",> 2.5,> 2.5,> 2.5
"CCN(CC)CCCCN(Cc1cc(C=O)ccn1)C(=O)C(F)(F)F [Compound 115, N-[4-(diethylamino)butyl]-2,2,2-trifluoro-N-[(4-formylpyridin-2-yl)methyl]acetamide]",0.25 to 2.5,0.25 to 2.5,0.25 to 2.5
